Assays:
Test in all cases: relative viability (nuclei count vs DMSO), 5 days (fraction); higher = more cells survive
ABC-1 = tested on: ABC-1
In short: (§1)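 A single step with final 0.05% Triton X-100, 1% formaldehyde and 1 ug/ml Hoechst fixed the cells and stained nuclei 5 days after treatment. Lung cancer cell lines in 1536-well plates had been treated by pin tool the day after seeding with one drug alone or a fixed anchor-drug dose plus five library-drug doses (not always all listed) in √10 steps, and nuclei were counted on 4× images. Relative viability is the ratio of nuclei in treated wells to nuclei in vehicle wells, taken as the median of duplicate plates.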

CAL-12T = tested on: CAL-12T
In short: as §1

COR-L23 = tested on: COR-L23
In short: as §1

EKVX = tested on: EKVX
In short: as §1

H3255 = tested on: H3255
In short: as §1

HCC-15 = tested on: HCC-15
In short: as §1

HCC-827 = tested on: HCC-827
In short: as §1

LK-2 = tested on: LK-2
In short: as §1

NCI-H1355 = tested on: NCI-H1355
In short: as §1

NCI-H1437 = tested on: NCI-H1437
In short: as §1

NCI-H1563 = tested on: NCI-H1563
In short: as §1

NCI-H1650 = tested on: NCI-H1650
In short: as §1

NCI-H1651 = tested on: NCI-H1651
In short: as §1

NCI-H1734 = tested on: NCI-H1734
In short: as §1

NCI-H2228 = tested on: NCI-H2228
In short: as §1

NCI-H2405 = tested on: NCI-H2405
In short: as §1

NCI-H322M = tested on: NCI-H322M
In short: as §1

NCI-H520 = tested on: NCI-H520
In short: as §1

NCI-H661 = tested on: NCI-H661
In short: as §1

PC-14 = tested on: PC-14
In short: as §1

PC-3 [JPC-3] = tested on: PC-3 [JPC-3]
In short: as §1

RERF-LC-KJ = tested on: RERF-LC-KJ
In short: as §1

SK-MES-1 = tested on: SK-MES-1
In short: as §1

SW 1573 = tested on: SW 1573
In short: as §1

SMILES: C[C@@H]1CN(CC(=O)Nc2ccc3c(c2)Cc2cccc(-c4cc(=O)cc(N5CCOCC5)o4)c2S3)C[C@H](C)O1 + N=C(N)NC(=N)NCCc1ccccc1 [Phenformin] (partner 250 µM)
- relative viability (ABC-1; first compound 0.1265 µM): 0.256
- relative viability (ABC-1; first compound 0.4 µM): 0.273
- relative viability (ABC-1; first compound 4 µM): 0.236
- relative viability (CAL-12T; first compound 0.04 µM): 0.712
- relative viability (CAL-12T; first compound 0.1265 µM): 0.505
- relative viability (CAL-12T; first compound 0.4 µM): 0.598
- relative viability (CAL-12T; first compound 4 µM): 0.425
- relative viability (COR-L23; first compound 0.04 µM): 0.435
- relative viability (COR-L23; first compound 0.1265 µM): 0.476
- relative viability (COR-L23; first compound 0.4 µM): 0.499
- relative viability (COR-L23; first compound 4 µM): 0.439
- relative viability (EKVX; first compound 0.04 µM): 0.23
- relative viability (EKVX; first compound 0.1265 µM): 0.25
- relative viability (EKVX; first compound 0.4 µM): 0.234
- relative viability (EKVX; first compound 4 µM): 0.221
- relative viability (H3255; first compound 0.04 µM): 0.388
- relative viability (H3255; first compound 0.1265 µM): 0.364
- relative viability (H3255; first compound 0.4 µM): 0.319
- relative viability (H3255; first compound 4 µM): 0.367
- relative viability (HCC-15; first compound 0.04 µM): 0.479
- relative viability (HCC-15; first compound 0.1265 µM): 0.437
- relative viability (HCC-15; first compound 0.4 µM): 0.401
- relative viability (HCC-15; first compound 4 µM): 0.363
- relative viability (HCC-827; first compound 0.04 µM): 0.429
- relative viability (HCC-827; first compound 0.1265 µM): 0.402
- relative viability (HCC-827; first compound 0.4 µM): 0.401
- relative viability (HCC-827; first compound 4 µM): 0.415
- relative viability (LK-2; first compound 0.1265 µM): 0.464
- relative viability (LK-2; first compound 0.4 µM): 0.365
- relative viability (LK-2; first compound 4 µM): 0.634
- relative viability (NCI-H1355; first compound 0.04 µM): 0.455
- relative viability (NCI-H1355; first compound 0.1265 µM): 0.482
- relative viability (NCI-H1355; first compound 0.4 µM): 0.433
- relative viability (NCI-H1355; first compound 4 µM): 0.43
- relative viability (NCI-H1437; first compound 0.04 µM): 0.338
- relative viability (NCI-H1437; first compound 0.1265 µM): 0.306
- relative viability (NCI-H1437; first compound 0.4 µM): 0.303
- relative viability (NCI-H1437; first compound 4 µM): 0.365
- relative viability (NCI-H1563; first compound 0.04 µM): 0.692
- relative viability (NCI-H1563; first compound 0.1265 µM): 0.636
- relative viability (NCI-H1563; first compound 0.4 µM): 0.659
- relative viability (NCI-H1563; first compound 4 µM): 0.677
- relative viability (NCI-H1650; first compound 0.04 µM): 0.406
- relative viability (NCI-H1650; first compound 0.1265 µM): 0.431
- relative viability (NCI-H1650; first compound 0.4 µM): 0.37
- relative viability (NCI-H1650; first compound 4 µM): 0.347
- relative viability (NCI-H1651; first compound 0.04 µM): 0.334
- relative viability (NCI-H1651; first compound 0.1265 µM): 0.321
- relative viability (NCI-H1651; first compound 0.4 µM): 0.36
- relative viability (NCI-H1651; first compound 4 µM): 0.313
- relative viability (NCI-H1734; first compound 0.04 µM): 0.429
- relative viability (NCI-H1734; first compound 0.1265 µM): 0.392
- relative viability (NCI-H1734; first compound 0.4 µM): 0.366
- relative viability (NCI-H1734; first compound 4 µM): 0.399
- relative viability (NCI-H2228; first compound 0.04 µM): 0.356
- relative viability (NCI-H2228; first compound 0.1265 µM): 0.406
- relative viability (NCI-H2228; first compound 0.4 µM): 0.287
- relative viability (NCI-H2228; first compound 4 µM): 0.289
- relative viability (NCI-H2405; first compound 0.04 µM): 0.402
- relative viability (NCI-H2405; first compound 0.1265 µM): 0.411
- relative viability (NCI-H2405; first compound 0.4 µM): 0.379
- relative viability (NCI-H2405; first compound 4 µM): 0.487
- relative viability (NCI-H322M; first compound 0.04 µM): 0.701
- relative viability (NCI-H322M; first compound 0.1265 µM): 0.74
- relative viability (NCI-H322M; first compound 0.4 µM): 0.729
- relative viability (NCI-H322M; first compound 4 µM): 0.691
- relative viability (NCI-H520; first compound 0.04 µM): 0.464
- relative viability (NCI-H520; first compound 0.1265 µM): 0.732
- relative viability (NCI-H520; first compound 0.4 µM): 0.312
- relative viability (NCI-H520; first compound 4 µM): 0.452
- relative viability (NCI-H661; first compound 0.04 µM): 0.261
- relative viability (NCI-H661; first compound 0.1265 µM): 0.274
- relative viability (NCI-H661; first compound 0.4 µM): 0.262
- relative viability (NCI-H661; first compound 4 µM): 0.317
- relative viability (PC-14; first compound 0.04 µM): 0.377
- relative viability (PC-14; first compound 0.1265 µM): 0.528
- relative viability (PC-14; first compound 0.4 µM): 0.556
- relative viability (PC-14; first compound 4 µM): 0.574
- relative viability (PC-3 [JPC-3]; first compound 0.04 µM): 0.494
- relative viability (PC-3 [JPC-3]; first compound 0.1265 µM): 0.469
- relative viability (PC-3 [JPC-3]; first compound 0.4 µM): 0.475
- relative viability (PC-3 [JPC-3]; first compound 4 µM): 0.488
- relative viability (RERF-LC-KJ; first compound 0.04 µM): 0.422
- relative viability (RERF-LC-KJ; first compound 0.1265 µM): 0.368
- relative viability (RERF-LC-KJ; first compound 0.4 µM): 0.379
- relative viability (RERF-LC-KJ; first compound 4 µM): 0.323
- relative viability (SK-MES-1; first compound 0.04 µM): 0.723
- relative viability (SK-MES-1; first compound 0.1265 µM): 0.652
- relative viability (SK-MES-1; first compound 0.4 µM): 0.665
- relative viability (SK-MES-1; first compound 4 µM): 0.546
- relative viability (SW 1573; first compound 0.04 µM): 0.438
- relative viability (SW 1573; first compound 0.1265 µM): 0.315
- relative viability (SW 1573; first compound 0.4 µM): 0.301
- relative viability (SW 1573; first compound 4 µM): 0.312

From the supplement of paper PMC10307832
